Where two headings read alike, the source gives them in different places.
Tests used:
Assay type in all cases: in vivo, human
[1] = Multiple-dose pharmacokinetics, plasma LNG concentrations on treatment day 55 (±1); settings: for AUC(0-t) / Cmax: female, human, plasma, po
Method: (§1) Serum SHBG concentrations were determined after ovulation in the pre-treatment cycle, on treatment day 55 (±1) and at the end-of-study examination. Multiple-dose PK parameters were investigated in approximately 15 subjects per dose group, 5 of them having a BMI≥30 kg/m^2. Blood samples for LNG determination were taken on treatment day 55 (±1) pre-dose and 0.5, 1, 2, 3, 4, 6 and 24 hours after dosing.
Plasma LNG concentrations were determined by a validated liquid chromatography hyphenated with tandem mass spectrometry method (ACC, Leidersbach, Germany). PK parameters were derived by means of non-compartmental analysis. Analysis of Variance (ANOVA) was used as basis for the calculation of 90% confidence intervals; point estimates and confidence intervals for area under the curve (AUC) and maximum concentration (Cmax) values and comparison of treatments which were calculated by parametric analysis. Descriptive statistics for each treatment group and for subgroups with BMI<30 and ≥30 kg/m^2 were calculated.

[2] = system: healthy, cyclic women; assay: Adverse events and tolerability
Method: At every visit, the subjects were questioned for adverse events and use of concomitant medication. Safety laboratory and pregnancy tests were performed at regular intervals during the study. Physical examinations were performed at screening and end of study.

[3] = system: healthy, cyclic women; assay: Vaginal bleeding pattern (daily record); settings: excluding the first 7 treatment days
Method: The tablets prepared in Example 1 were tested in a single-center, open-label, adaptive design study to evaluate the influence on hormonal and ovarian function and vaginal bleeding pattern of different higher dosages of LNG administered once daily for 28 days over two consecutive treatment cycles in healthy, cyclic women.
Throughout the study, subjects kept a daily record of vaginal bleeding. During the treatment period, they also documented the time of study medication intake.

[4] = system: healthy, cyclic women; assay: Serum SHBG concentrations
Method: as §1
If ovulation was observed during treatment, the subsequent luteal phase was evaluated using the Landgren criterion, i.e. the luteal phase was considered adequate when P concentrations were >16 nmol/L during at least 5 days (Landgren et al., “Hormonal effects of the 300 μg norethisterone (NET) minipill. 1. Daily steroid levels in 43 subjects during a pretreatment cycle and during the second month of NET administration,” Contraception 1980; 21: pp. 87-113). TVUS measurements of the diameter of the largest FLS (mean of two directions) were performed using a Voluson E8 Expert device (GE Medical Systems). Serum FSH, LH, E2, P and SHBG concentrations were determined by validated chemiluminescent microparticle immunoassays (Abbott, Longford, Ireland). All pharmacodynamic parameters were evaluated descriptively.

[5] = LNG 0.095 mg per day, end of study (on average 22 days after last treatment)
[6] = LNG 0.095 mg per day, treatment day 55 ± 1
[7] = LNG 0.115 mg per day, end of study (on average 22 days after last treatment)
[8] = LNG 0.115 mg per day, treatment day 55 ± 1
[9] = LNG 0.135 mg per day, end of study (on average 22 days after last treatment)
[10] = LNG 0.135 mg per day, treatment day 55 ± 1

C#C[C@]1(O)CC[C@H]2[C@@H]3CCC4=CC(=O)CC[C@@H]4[C@H]3CC[C@@]21CC (racemic) [LNG, levonorgestrel]
AUC(0-t) ([1]; 0.095 mg per day, 0.095 mg per day oral over 55 ± 1 consecutive days, subgroup BMI ≥ 30 kg/m^2, read-out: AUC0-24, ss, Geometric mean): 9.2 ng·h/mL | Cmax ([1]; 0.095 mg per day, 0.095 mg per day oral over 55 ± 1 consecutive days, subgroup BMI ≥ 30 kg/m^2, read-out: Cmax, ss, Geometric mean): 1.05 ng/mL | AUC(0-t) ([1]; 0.115 mg per day, 0.115 mg per day oral over 55 ± 1 consecutive days, entire treatment group, read-out: AUC0-24, ss, Geometric Mean): 13.8 ng·h/mL | AUC(0-t) ([1]; 0.115 mg per day, 0.115 mg per day oral over 55 ± 1 consecutive days, entire treatment group, read-out: AUC0-24, ss, Mean): 14.8 ng·h/mL | AUC(0-t) ([1]; 0.115 mg per day, 0.115 mg per day oral over 55 ± 1 consecutive days, entire treatment group, read-out: AUC0-24, ss, Median): 12.9 ng·h/mL | Cmax ([1]; 0.115 mg per day, 0.115 mg per day oral over 55 ± 1 consecutive days, entire treatment group, read-out: Cmax, ss, Geometric Mean): 1.67 ng/mL | Cmax ([1]; 0.115 mg per day, 0.115 mg per day oral over 55 ± 1 consecutive days, entire treatment group, read-out: Cmax, ss, Mean): 1.79 ng/mL | Cmax ([1]; 0.115 mg per day, 0.115 mg per day oral over 55 ± 1 consecutive days, entire treatment group, read-out: Cmax, ss, Median): 1.81 ng/mL | AUC(0-t) ([1]; 0.115 mg per day, 0.115 mg per day oral over 55 ± 1 consecutive days, subgroup BMI < 30 kg/m2, read-out: AUC0-24, ss, Geometric mean): 16.3 ng·h/mL | Cmax ([1]; 0.115 mg per day, 0.115 mg per day oral over 55 ± 1 consecutive days, subgroup BMI < 30 kg/m2, read-out: Cmax, ss, Geometric mean): 2.03 ng/mL | AUC(0-t) ([1]; 0.115 mg per day, 0.115 mg per day oral over 55 ± 1 consecutive days, subgroup BMI ≥ 30 kg/m^2, read-out: AUC0-24, ss, Geometric mean): 9.32 ng·h/mL | Cmax ([1]; 0.115 mg per day, 0.115 mg per day oral over 55 ± 1 consecutive days, subgroup BMI ≥ 30 kg/m^2, read-out: Cmax, ss, Geometric mean): 1.05 ng/mL | AUC(0-t) ([1]; 0.135 mg per day, 0.135 mg per day oral over 55 ± 1 consecutive days, entire treatment group, read-out: AUC0-24, ss, Geometric Mean): 16.8 ng·h/mL | AUC(0-t) ([1]; 0.135 mg per day, 0.135 mg per day oral over 55 ± 1 consecutive days, entire treatment group, read-out: AUC0-24, ss, Mean): 17.5 ng·h/mL | AUC(0-t) ([1]; 0.135 mg per day, 0.135 mg per day oral over 55 ± 1 consecutive days, entire treatment group, read-out: AUC0-24, ss, Median): 16.9 ng·h/mL | Cmax ([1]; 0.135 mg per day, 0.135 mg per day oral over 55 ± 1 consecutive days, entire treatment group, read-out: Cmax, ss, Geometric Mean): 1.92 ng/mL | Cmax ([1]; 0.135 mg per day, 0.135 mg per day oral over 55 ± 1 consecutive days, entire treatment group, read-out: Cmax, ss, Mean): 2.01 ng/mL | Cmax ([1]; 0.135 mg per day, 0.135 mg per day oral over 55 ± 1 consecutive days, entire treatment group, read-out: Cmax, ss, Median): 1.93 ng/mL | AUC(0-t) ([1]; 0.135 mg per day, 0.135 mg per day oral over 55 ± 1 consecutive days, subgroup BMI < 30 kg/m2, read-out: AUC0-24, ss, Geometric mean): 17.6 ng·h/mL | Cmax ([1]; 0.135 mg per day, 0.135 mg per day oral over 55 ± 1 consecutive days, subgroup BMI < 30 kg/m2, read-out: Cmax, ss, Geometric mean): 2.14 ng/mL | AUC(0-t) ([1]; 0.135 mg per day, 0.135 mg per day oral over 55 ± 1 consecutive days, subgroup BMI ≥ 30 kg/m^2, read-out: AUC0-24, ss, Geometric mean): 15.3 ng·h/mL | Cmax ([1]; 0.135 mg per day, 0.135 mg per day oral over 55 ± 1 consecutive days, subgroup BMI ≥ 30 kg/m^2, read-out: Cmax, ss, Geometric mean): 1.52 ng/mL | Time at which maximum plasma LNG values were reached after dosing ([1]; study drug administration on day 55±1, all dosages): 1 h | n acne events, possibly IMP related ([2]; 0.095 mg LNG, n subjects 30): 3 | n acne events, possibly IMP related ([2]; 0.115 mg LNG, n subjects 29): 4 | n acne events, possibly IMP related ([2]; 0.135 mg LNG, n subjects 29): 4 | Tolerability of the study medication ([2]; LNG 0.095, 0.115 or 0.135 mg per day for 56 days): well tolerated | Number of days with bleeding or spotting during treatment, mean (±SD) ([3]; LNG 0.095 mg per day): 12.3 (±8.6) days | Number of days with bleeding or spotting during treatment, median ([3]; LNG 0.095 mg per day): 11.5 days | Number of days with bleeding or spotting during treatment, mean (±SD) ([3]; LNG 0.115 mg per day): 14.5 (±9.4) days | Number of days with bleeding or spotting during treatment, median ([3]; LNG 0.115 mg per day): 14.5 days | Number of days with bleeding or spotting during treatment, mean (±SD) ([3]; LNG 0.135 mg per day): 16.0 (±11.5) days | Number of days with bleeding or spotting during treatment, median ([3]; LNG 0.135 mg per day): 13.0 days | SHBG, Mean ± SD [4, 5]: 49.9 ± 17.4 nmol/L | SHBG, Median [4, 5]: 47.7 nmol/L | SHBG, Mean ± SD [4, 6]: 27.7 ± 10.6 nmol/L | SHBG, Median [4, 6]: 25.5 nmol/L | SHBG, Mean ± SD [4, 7]: 48.1 ± 20.1 nmol/L | SHBG, Median [4, 7]: 46.7 nmol/L | SHBG, Mean ± SD [4, 8]: 23.9 ± 12.1 nmol/L | SHBG, Median [4, 8]: 18.9 nmol/L | SHBG, Mean ± SD [4, 9]: 58.6 ± 28.5 nmol/L | SHBG, Median [4, 9]: 47.8 nmol/L | SHBG, Mean ± SD [4, 10]: 24.0 ± 9.5 nmol/L | SHBG, Median [4, 10]: 23.7 nmol/L | Suppression of SHBG concentrations ([4]; all treatment groups, end of treatment period 2): approximately 60%

— patent US11679114B2, “Progestogen-only oral contraception” (Navad Life Sciences Pte, priority 2021, dated 2023)
